Experimental data as given in patent US20130039857A1, “METHODS OF SUPPRESSING CANCER, INCREASING WEIGHT LOSS AND/OR INCREASING INSULIN SENSITIVITY” (priority 2010, published 2013).

Columns and labels:
[1] = Total body mass and magnetic resonance imaging (fat and lean mass), wild-type mice; type: in vivo, mouse
Experimental: Total body mass (g) was recorded before (T=0) and 12 hr (T=12 hr) after the SU6656 injection. To determine fat and lean mass, animals were placed in a clear plastic holder without anesthesia or sedation and inserted into the EchoMRI-3-in-1™ System from Echo Medical Systems (Houston, Tex., USA). Total body fat and lean mass were measured before (T=0) and after (T=12 hr) after the injection.
As mice generally consume 80% of their calories during the dark cycle and have a limited food intake during the light cycle, they undergo a diurnal pattern of weight gain and loss as shown by the decreased body mass at T=12 hr in the vehicle-treated mice. […] To determine whether the lowered RQ in the mice treated with SU6656 was directly due to increased skeletal muscle fatty acid oxidation, red soleus and white gastrocnemius muscles were isolated 3 hr following the vehicle or SU6656 injection and incubated with ^14C-palmitate. The oxidation of ^14C-palmitate to ^14CO2 was increased 25% and 33%, respectively, in the soleus and the gastrocnemius of the SU6656-treated mice relative to vehicle treated controls (FIGS. 3A and 3B). The SU6656-stimulated increase in fatty acid oxidation occurred concomitantly, with an approximate 3-fold increased AMPK α subunit T172 phosphorylation and increased ACC S79 (ACC1) and S221 (ACC2) phosphorylation levels (FIGS. 3C and 3D).

[2] = tested on: AMPK α subunit T172 phosphorylation; test: Western blot of phospho-T172 AMPK in white gastrocnemius; type: in vivo, mouse; conditions: SU6656 4 mg/kg, 3 hr after injection, vs vehicle
Experimental: (§1) Animals were injected with vehicle or SU6656 (4 mg/kg) at the beginning of the light cycle. They were anesthetized and sacrificed by cervical dislocation 3 hr after the injection. Tissues were rapidly freeze clamped in liquid nitrogen and stored at […]. Protein preparation and blotting were performed as described below. Tissues were ground in liquid nitrogen and homogenized in a buffer containing 50 mM Tris (pH 7.4), 1% glycerol, and 1% Triton X-100 supplemented with protease inhibitor (Complete Mini, Roche Pharmaceuticals, Nutley, N. J.). Homogenates were centrifuged for 30 min at 14,000 rpm at 4° C., and supernatants were collected. Protein concentration was determined with the BCA™ Protein Assay (Thermo Scientific, Rockford, Ill.).
(§2) Protein samples (40 μg) were separated on 8% or 10% reducing polyacrylamide gels and transferred onto Immobilon-P polyvinylidene difluoride membranes. […] Alternatively, immunoblots were incubated with IRDye800CW goat antimouse (H+L) or IRDye680 goat anti-rabbit (H+L) secondary antibodies, and signal was detected with the Odyssey® Infrared Imaging System (Li-COR Biotechnology, Lincoln, Nebr.).

LKB1 = test: Endogenous LKB1 immunofluorescence in skeletal muscle in vivo; set-up: species or system mouse; conditions: wild-type mice treated with SU6656
Wild-type mice = test: Whole-body indirect calorimetry, wild-type mice; type: in vivo, mouse
Description: (§3) Eight- to ten-week-old male C57BL6/J, pp59^fyn null mice and their controls were obtained from The Jackson Laboratory (Bar Harbor, Me.) and housed in a facility equipped with a 12 hr light/dark cycle. Animals were fed ad libitum a standard chow diet (Research Diets, New Brunswick, N. J.) containing 75.9% (Kcal) carbohydrates, 14.7% protein, and 9.4% fat. All studies were approved by and performed in compliance with the guidelines of the Yeshiva University Institutional Animal Care and Use Committee (IACUC).
(§4) Oxygen and carbon dioxide consumption were simultaneously determined by Oxymax open-circuit indirect calorimetry system (eight-cage system) (Columbus Instruments). Animals were allowed to acclimatize for two complete light and dark cycles (48 hr), and SU6656 (2-oxo-3-(4,5,6,7-tetrahydro-1H-indol-2-ylmethylene)-2,3-dihydro-1H-indole-5-sulfonic acid dimethylamide) injections were performed at the beginning of the light cycle the following day. Measurements were subsequently taken 12 hr following the injection. Data were analyzed as the average of 1 hr measurements for each mouse. Instrument settings were as follows: gas flow rate, 0.6 1/min; sample flow rate, 0.5 1/min; settle time, 120 s; measure time, 60 s.
Loss of Fyn kinase protein in the conventional Fyn knockout mice leads to increased lipid utilization and energy expenditure, particularly in the fasting/resting state (Bastie et al., 2007). To examine the effects of acute Fyn inhibition, the in vivo effects of the pharmacological selective Src family kinase inhibitor SU6656 was investigated. Wild-type mice were placed into metabolic chambers and allowed to acclimatize for 48 hr. Intraperitoneal injection of SU6656 or vehicle was performed at the beginning of the light cycle (fasting/resting state), and the respiratory quotient (RQ), oxygen consumption (VO2), energy expenditure (EE), and physical activity were monitored for the following 12 hr. […] Oxygen consumption and energy expenditure were similar in both groups before the injection and were decreased during the light period as the animals were resting with reduced basal metabolism.

[3] = tested on: ACC S79 (ACC1) and S221 (ACC2) phosphorylation; test: Western blot of phospho-ACC in white gastrocnemius; type: in vivo, mouse; conditions: SU6656 4 mg/kg, 3 hr after injection, vs vehicle
Experimental: as §1, §2

Fyn kinase = Fyn kinase (Homo sapiens, UniProt P06241); set-up: dose or concentration left out as unconfirmed; conditions: cited from earlier work
Fyn kinase, sequence (P06241 1-534 isoform P06241-2): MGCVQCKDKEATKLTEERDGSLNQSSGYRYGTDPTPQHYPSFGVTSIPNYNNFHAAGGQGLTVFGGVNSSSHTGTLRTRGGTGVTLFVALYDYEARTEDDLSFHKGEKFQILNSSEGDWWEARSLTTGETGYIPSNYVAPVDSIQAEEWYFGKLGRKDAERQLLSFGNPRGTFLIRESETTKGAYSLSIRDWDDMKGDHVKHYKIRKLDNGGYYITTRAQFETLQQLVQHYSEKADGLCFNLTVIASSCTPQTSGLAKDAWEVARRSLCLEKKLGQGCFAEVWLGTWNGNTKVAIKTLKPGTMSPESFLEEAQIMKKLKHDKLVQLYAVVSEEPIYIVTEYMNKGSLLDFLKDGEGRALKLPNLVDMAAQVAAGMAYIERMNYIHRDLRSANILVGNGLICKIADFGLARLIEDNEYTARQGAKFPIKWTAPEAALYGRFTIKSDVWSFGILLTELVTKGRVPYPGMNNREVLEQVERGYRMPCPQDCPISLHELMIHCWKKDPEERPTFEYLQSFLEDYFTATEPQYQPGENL

[4] = tested on: LKB1 subcellular localization in C2C12 muscle cell line; test: GFP-LKB1 subcellular localization in C2C12 myotubes; type: cell-based; set-up: dose or concentration left out as unconfirmed; conditions: C2C12 myotubes transfected with pEGFP-LKB1
Experimental: FIGS. 4A-4F. Fyn Kinase Activity Regulates LKB1 Subcellular Distribution. (4A) C2C12 myotubes were transfected with pEGFP-LKB1 and incubated with vehicle or SU6656 ([…]) for 2 hr. Cells were fixed and mounted with proQ diamond with DAPI solution. (4B) Shown is percentage of cells with pEGFPLKB1 signal detected in the cytoplasm. (4C) C2C12 myotubes were cotransfected with pEGFP-LKB1 and pcDNA3-Fyn-KD or pcDNA3-Fyn-CA. Cells were fixed and incubated with the mouse Fyn monoclonal antibody. Immunofluorescence was performed using the Alexa Fluor 594 Anti-mouse IgG. (4D) Percentage of C2C12 cells with pEGFP-LKB1 signal detected in the cytoplasm. Data are representative of n=5 experiments. (4E) Fully differentiated 3T3L1 adipocytes were cotransfected with pcDNA3-LKB1 and pcDNA3-Fyn-KD or pcDNA3-Fyn-CA. […] (4F) Percentage of 3T3L1 cells with LKB1 signal detected in the cytoplasm. […]
The ratio of cytosolic and nuclear LKB1 was quantified using the Image J software (National Institutes of Health). […]
C2C12 myotubes were cotransfected with 50 μg pEGFP-C2-LKB1 or pcDNA3-Flag-LKB1 or pcDNA3-Flag-LKB1 mutants and 200 μg of the indicated pcDNA3-Fyn constructs. […] Cells were imaged using a confocal fluorescence microscope (TCS SP5 confocal; Leica Microsystems). […]

[5] = tested on: red soleus and white gastrocnemius muscles; test: Fatty acid oxidation in isolated muscles (14C-palmitate to 14CO2); type: in vivo, mouse; conditions: relative to vehicle treated controls
Experimental: Animals received a single intraperitoneal injection of SU6656 or vehicle in the morning. Mice were sacrificed by cervical dislocation 3 hr after the injection. Skeletal muscles (red soleus and white gastrocnemius) were rapidly removed and preincubated for 10 min in oxygenated (95% O2, 5% CO2) Earle's solution (Invitrogen, Carlsbad, Calif.) supplemented with 5 mMD-glucose, 250 μM palmitate, and 0.5% BSA plus either 10 μM SU6656 or an equal volume of DMSO. Tissues were incubated for 45 min in the same buffer containing […] palmitate containing 1 μCi/ml [1-^14C] palmitate tracer (Amersham, Piscataway, N. J.) bound to 0.5% BSA. Incubations were carried out under an atmosphere of 95% O2/5% CO2 at 30° C. in glass vials (Kontes, Vineland, N.J.) equipped with a center well filled with 200 μl of 2N NaOH (trapping agent). At the end of the incubation, perchloric acid was added through the cap to a concentration of […], and vials were incubated for 3 hr at 30° C. with moderate shaking. The ^14CO2 produced was determined by scintillation counting of NaOH using the UniScintBD scintillation liquid (National Diagnostics, Atlanta, Ga.).
As mice generally consume 80% of their calories during the dark cycle and have a limited food intake during the light cycle, they undergo a diurnal pattern of weight gain and loss as shown by the decreased body mass at T=12 hr in the vehicle-treated mice. […]

Fyn knockout mice = test: Whole-body indirect calorimetry and body mass, Fyn knockout mice; type: in vivo, mouse
Description: as §3, §4
To address this issue, the metabolic effect of SU6656 on wild type versus Fyn knockout mice was investigated. […]

[6] = SU6656 4 mg/kg intraperitoneal, light period, 12 hr following injection

In the case of `CN(C)S(=O)(=O)c1ccc2c(c1)C(=Cc1cc3c([nH]1)CCCC3)C(=O)N2` [SU6656, 2-oxo-3-(4,5,6,7-tetrahydro-1H-indol-2-ylmethylene)-2,3-dihydro-1H-indole-5-sulfonic acid dimethylamide], the “total weight loss greater than vehicle-treated group” value ([1]; 12 hr after SU6656 injection) was 40%, the fat mass ([1]; T=12 hr, SU6656-treated vs vehicle-injected control animals) was “significantly reduced” and the lean mass ([1]; T=12 hr, vehicle vs SU6656-injected mice) was “no significant difference”. For the same compound, the “increased AMPK α subunit T172 phosphorylation” value [2] was ~3 fold, the “LKB1 signal in the cytoplasm of muscle cells” value (LKB1) was “increased LKB1 signal” and the “decrease of respiratory quotient (RQ)” value (Wild-type mice; SU6656 4 mg/kg intraperitoneal at beginning of light cycle, vs vehicle, particularly first 3 hr after injection) was “more pronounced”. For the same compound, the “energy expenditure (EE) elevation vs vehicle” value (Wild-type mice; [6]) was 14%, the “oxygen consumption (VO2) elevation vs vehicle” value (Wild-type mice; [6]) was 14% and the physical activity (Wild-type mice; SU6656 4 mg/kg, dark or light cycle) was “without any alteration”. For the same compound, the “respiratory quotient (RQ), wild-type controls of Fyn knockout mice” value (Wild-type mice; three-month-old wild-type mice, SU6656 vs vehicle, 12 hr following injection) was “lower RQ”, the “ACC S79 (ACC1) and S221 (ACC2) phosphorylation levels” value [3] was “increased” and the Fyn kinase activity (Fyn kinase) was “sufficient to inactivate”. For the same compound, the “cells with redistribution of LKB1 into the cytoplasm” value [4] was “approximately 65%”, the “increase in oxidation of 14C-palmitate to 14CO2, soleus” value ([5]; red soleus isolated 3 hr after injection) was 25% and the “increase in oxidation of 14C-palmitate to 14CO2, gastrocnemius” value ([5]; white gastrocnemius isolated 3 hr after injection) was 33%. For the same compound, the “body mass or physical activity in Fyn null mice” value (Fyn knockout mice; after SU6656 treatment) was “no alterations” and the “rate of change or RQ level in Fyn knockout mice” value (Fyn knockout mice; three-month-old Fyn knockout mice, SU6656 vs vehicle) was “no significant effect”.
